In US7015215B2, “Pyrrolo[2,1-c][1,4] benzodiazepines compounds and process thereof” (Council of Scientific and Industrial Research, priority 2003, dated 2006):

Legend:
T-47D = assay: NCI SRB cytotoxicity, Breast T-47D; format: cell-based, human; conditions: 48 h
Procedure: (§1) Biological Activity: In vitro biological activity studies were carried out at National Cancer Institute (U.S.A.).
(§2) For each compound, dose response curves for each cell line were measured at a minimum of five concentrations at 10 fold dilutions. A protocol of 48 h continuous drug exposure was used, and a sulforhodamine B (SRB) protein assay was used to estimate cell viability or growth. The concentration causing 50% cell growth inhibition (GI50), total cell growth inhibition (TGI, 0% growth) and 50% cell death (LC50, −50% growth) compared with the control was calculated.

OVCAR-3 = assay: NCI SRB cytotoxicity, Ovarian OVCAR-3; format: cell-based, human; conditions: OVCAR-3, Ovarian, 48 h
Procedure: as §1, §2

M14 = assay: NCI SRB cytotoxicity, Melanoma M14; format: cell-based, human; conditions: 48 h
Procedure: as §1, §2

HL-60(TB) = conditions: Leukemia, 48 h, SRB
Procedure: as §1, §2

UACC-257 = assay: NCI SRB cytotoxicity, Melanoma UACC-257; format: cell-based, human; conditions: UACC-257, Melanoma, 48 h
Procedure: as §1, §2

NCI-H460 = assay: NCI SRB cytotoxicity, Non-small-cell lung NCI-H460; format: cell-based, human; conditions: 48 h
Procedure: as §1, §2

A549/ATCC = assay: NCI SRB cytotoxicity, Non-small-cell lung A549/ATCC; format: cell-based, human; conditions: 48 h
Procedure: as §1, §2

UACC-62 = assay: NCI SRB cytotoxicity, Melanoma UACC-62; format: cell-based, human; conditions: UACC-62, Melanoma, 48 h
Procedure: as §1, §2

A498 = assay: NCI SRB cytotoxicity, Renal A498; format: cell-based, human; conditions: 48 h
Procedure: as §1, §2

SF-539 = assay: NCI SRB cytotoxicity, CNS SF-539; format: cell-based, human; conditions: SF-539, CNS, 48 h
Procedure: as §1, §2

DU-145 = assay: NCI SRB cytotoxicity, Prostate DU-145; format: cell-based, human; conditions: DU-145, Prostate, 48 h
Procedure: as §2

RXF 393 = assay: NCI SRB cytotoxicity, Renal RXF 393; format: cell-based, human; conditions: RXF 393, Renal, 48 h
Procedure: as §2

HCC-2998 = assay: NCI SRB cytotoxicity, Colon HCC-2998; format: cell-based, human; conditions: HCC-2998, Colon, 48 h
Procedure: as §1, §2

MOLT-4 = assay: NCI SRB cytotoxicity, Leukemia MOLT-4; format: cell-based, human; conditions: MOLT-4, Leukemia, 48 h
Procedure: as §1, §2

CAKI-1 = assay: NCI SRB cytotoxicity, Renal CAKI-1; format: cell-based, human; conditions: CAKI-1, Renal, 48 h
Procedure: as §1, §2

COLO 205 = assay: NCI SRB cytotoxicity, Colon COLO 205; format: cell-based, human; conditions: COLO 205, Colon, 48 h
Procedure: as §1, §2

BT-549 = assay: NCI SRB cytotoxicity, Breast BT-549; format: cell-based, human; conditions: BT-549, Breast, 48 h
Procedure: as §1, §2

SK-MEL-28 = assay: NCI SRB cytotoxicity, Melanoma SK-MEL-28; format: cell-based, human; conditions: SK-MEL-28, Melanoma, 48 h
Procedure: as §1, §2

HOP-92 = assay: NCI SRB cytotoxicity, Non-small-cell lung HOP-92; format: cell-based, human; conditions: HOP-92, Non-small-cell lung, 48 h
Procedure: as §1, §2

MDA-MB-231/ATCC = assay: NCI SRB cytotoxicity, Breast MDA-MB-231/ATCC; format: cell-based, human; conditions: 48 h
Procedure: as §1, §2

TK-10 = assay: NCI SRB cytotoxicity, Renal TK-10; format: cell-based, human; conditions: TK-10, Renal, 48 h
Procedure: as §1, §2

RPMI-8226 = assay: NCI SRB cytotoxicity, Leukemia RPMI-8226; format: cell-based, human; conditions: RPMI-8226, Leukemia, 48 h
Procedure: as §2

SNB-75 = assay: NCI SRB cytotoxicity, CNS SNB-75; format: cell-based, human; conditions: SNB-75, CNS, 48 h
Procedure: as §1, §2

EKVX = assay: NCI SRB cytotoxicity, Non-small-cell lung EKVX; format: cell-based, human; conditions: 48 h
Procedure: as §1, §2

SF-268 = assay: NCI SRB cytotoxicity, CNS SF-268; format: cell-based, human; conditions: SF-268, CNS, 48 h
Procedure: as §1, §2

SN12C = assay: NCI SRB cytotoxicity, Renal SN12C; format: cell-based, human; conditions: 48 h
Procedure: as §1, §2

K-62 = assay: NCI SRB cytotoxicity, Leukemia K-62; format: cell-based, human; conditions: K-62, Leukemia, 48 h
Procedure: as §1, §2

786-0 = assay: NCI SRB cytotoxicity, Renal 786-0; format: cell-based, human; conditions: 786-0, Renal, 48 h
Procedure: as §1, §2

SK-MEL-5 = assay: NCI SRB cytotoxicity, Melanoma SK-MEL-5; format: cell-based, human; conditions: SK-MEL-5, Melanoma, 48 h
Procedure: as §1, §2

NCI-H322 = assay: NCI SRB cytotoxicity, Non-small-cell lung NCI-H322; format: cell-based, human; conditions: 48 h
Procedure: as §1, §2

UO-31 = assay: NCI SRB cytotoxicity, Renal UO-31; format: cell-based, human; conditions: UO-31, Renal, 48 h
Procedure: as §2

U251 = assay: NCI SRB cytotoxicity, CNS U251; format: cell-based, human; conditions: 48 h
Procedure: as §1, §2

ACHN = assay: NCI SRB cytotoxicity, Renal ACHN; format: cell-based, human; conditions: 48 h
Procedure: as §1, §2

human tumor cell lines = assay: NCI in vitro cytotoxicity SRB assay, mean graph midpoints over the panel; format: cell-based; conditions: 48 h continuous exposure
Procedure: as §1, §2

NCI/ADR-RES = assay: NCI SRB cytotoxicity, Breast NCI/ADR-RES; format: cell-based, human; conditions: 48 h
Procedure: as §1, §2

SK-MEL-2 = assay: NCI SRB cytotoxicity, Melanoma SK-MEL-2; format: cell-based, human; conditions: SK-MEL-2, Melanoma, 48 h
Procedure: as §1, §2

SW-620 = assay: NCI SRB cytotoxicity, Colon SW-620; format: cell-based, human; conditions: SW-620, Colon, 48 h
Procedure: as §1, §2

With `COc1cc2c(cc1OCCCN1CCN(CCCOc3cc4c(cc3OC)C(=O)N3CCC[C@H]3C=N4)CC1)N=C[C@@H]1CCCN1C2=O` [Compound VIb, 1,1′-{[(bispropane-1,N-diyl)piperazine]dioxy}bis[(11aS)-7-methoxy-1,2,3,11a-tetrahydro-5H-pyrrolo[2,1-c][1,4]benzodiazepin-5-one]] the “Log GI 50” value (T-47D) was −5.16 mol/L, the “Log LC 50” value (T-47D) was −4.00 mol/L and the “Log GI 50” value (OVCAR-3) was −5.47 mol/L. For the same compound, the “Log LC 50” value (OVCAR-3) was −4.00 mol/L, the “Log GI 50” value (M14) was −5.55 mol/L and the “Log LC 50” value (M14) was −4.00 mol/L. For the same compound, the “Log GI 50” value (HL-60(TB)) was −6.66 mol/L, the “Log LC 50” value (HL-60(TB)) was −4.00 mol/L and the “Log GI 50” value (UACC-257) was −4.45 mol/L. For the same compound, the “Log LC 50” value (UACC-257) was −4.00 mol/L, the “Log GI 50” value (NCI-H460) was −5.37 mol/L and the “Log LC 50” value (NCI-H460) was −4.00 mol/L. The “Log GI 50” value (A549/ATCC) was −4.37 mol/L, the “Log LC 50” value (A549/ATCC) was −4.00 mol/L and the “Log GI 50” value (UACC-62) was −4.68 mol/L. The “Log LC 50” value (UACC-62) was −4.00 mol/L, the “Log GI 50” value (A498) was −5.73 mol/L and the “Log LC 50” value (A498) was −4.00 mol/L. The “Log GI 50” value (SF-539) was −6.21 mol/L, the “Log LC 50” value (SF-539) was −4.00 mol/L and the “Log GI 50” value (DU-145) was −5.62 mol/L. The “Log LC 50” value (DU-145) was −4.00 mol/L, the “Log GI 50” value (RXF 393) was −5.68 mol/L and the “Log LC 50” value (RXF 393) was −4.09 mol/L. For the same compound, the “Log GI 50” value (HCC-2998) was −4.73 mol/L, the “Log LC 50” value (HCC-2998) was −4.04 mol/L and the “Log GI 50” value (MOLT-4) was −6.50 mol/L. For the same compound, the “Log LC 50” value (MOLT-4) was −4.08 mol/L, the “Log GI 50” value (CAKI-1) was −4.65 mol/L and the “Log LC 50” value (CAKI-1) was −4.00 mol/L. For the same compound, the “Log GI 50” value (COLO 205) was −5.34 mol/L, the “Log LC 50” value (COLO 205) was −4.00 mol/L and the “Log GI 50” value (BT-549) was −5.77 mol/L. The “Log LC 50” value (BT-549) was −4.00 mol/L, the “Log GI 50” value (SK-MEL-28) was −4.48 mol/L and the “Log LC 50” value (SK-MEL-28) was −4.00 mol/L. For the same compound, the “Log GI 50” value (HOP-92) was −6.81 mol/L, the “Log LC 50” value (HOP-92) was −4.00 mol/L and the “Log GI 50” value (MDA-MB-231/ATCC) was −4.52 mol/L. For the same compound, the “Log LC 50” value (MDA-MB-231/ATCC) was −4.00 mol/L, the “Log GI 50” value (TK-10) was −5.10 mol/L and the “Log LC 50” value (TK-10) was −4.00 mol/L. For the same compound, the “Log GI 50” value (RPMI-8226) was −6.73 mol/L, the “Log LC 50” value (RPMI-8226) was −4.00 mol/L and the “Log GI 50” value (SNB-75) was −4.61 mol/L. For the same compound, the “Log LC 50” value (SNB-75) was −4.00 mol/L, the “Log GI 50” value (EKVX) was −4.47 mol/L and the “Log LC 50” value (EKVX) was −4.00 mol/L. The “Log GI 50” value (SF-268) was −5.52 mol/L, the “Log GI 50” value (SN12C) was −4.44 mol/L and the “Log LC 50” value (SN12C) was −4.00 mol/L. For the same compound, the “Log GI 50” value (K-62) was −5.76 mol/L, the “Log LC 50” value (K-62) was −4.00 mol/L and the “Log GI 50” value (786-0) was −5.30 mol/L. The “Log LC 50” value (786-0) was −4.00 mol/L, the “Log GI 50” value (SK-MEL-5) was −5.66 mol/L and the “Log LC 50” value (SK-MEL-5) was −4.50 mol/L. For the same compound, the “Log GI 50” value (NCI-H322) was −4.57 mol/L, the “Log LC 50” value (NCI-H322) was −4.00 mol/L and the “Log GI 50” value (UO-31) was −4.27 mol/L. The “Log LC 50” value (UO-31) was −4.00 mol/L, the “Log GI 50” value (U251) was −5.41 mol/L and the “Log LC 50” value (U251) was −4.00 mol/L. The “Log GI 50” value (ACHN) was −4.47 mol/L, the “Log LC 50” value (ACHN) was −4.00 mol/L and the “Log10 GI50 mean graph midpoint (MG_MID)” value (human tumor cell lines) was −5.19. The “Log10 LC50 mean graph midpoint (MG_MID)” value (human tumor cell lines) was −4.01, the “Log10 TGI mean graph midpoint (MG_MID)” value (human tumor cell lines) was −4.22 and the “Log GI 50” value (NCI/ADR-RES) was −4.00 mol/L. The “Log LC 50” value (NCI/ADR-RES) was −4.00 mol/L, the “Log GI 50” value (SK-MEL-2) was −4.82 mol/L and the “Log LC 50” value (SK-MEL-2) was −4.00 mol/L. The “Log GI 50” value (SW-620) was −6.23 mol/L and the “Log LC 50” value (SW-620) was −4.00 mol/L.
